The values that follow come from BindingDB's records for doi:10.1016/s0960-894x(01)00278-5 (Pharmacia, 2001).

This experiment can be described thus: Binding affinity towards guinea pig Opioid receptor kappa 1 using radioligand [3H]U69,593.

As to `CN1CC[C@]23c4c5ccc(C(N)=O)c4OC2C(O)C=C[C@H]3[C@H]1C5` (stereo partly drawn) [14-hydroxy-4-methyl-(1S,5R,17R)-12-oxa-4-azapentacyclo[9.6.1.01,13.05,17.07,18]octadeca-7,9,11(18),15-tetraene-10-carboxamide], the Ki is 1.9 µM.

Turning to `CN(C)C(=O)c1ccc2c3c1OC1C(O)C=C[C@H]4[C@@H](C2)N(C)CC[C@]314` (stereo partly drawn) [4,10N,10N-trimethyl-14-hydroxy-(1S,5R,17R)-12-oxa-4-azapentacyclo[9.6.1.01,13.05,17.07,18]octadeca-7,9,11(18),15-tetraene-10-carboxamide], the Ki is greater than 10 µM.

As to `CNC(=O)c1ccc2c3c1OC1C(O)C=C[C@H]4[C@@H](C2)N(C)CC[C@]314` (stereo partly drawn) [4,10N-dimethyl-14-hydroxy-(1S,5R,17R)-12-oxa-4-azapentacyclo[9.6.1.01,13.05,17.07,18]octadeca-7,9,11(18),15-tetraene-10-carboxamide], the inhibition constant (Ki) was greater than 10 µM.
